Reference: ChEMBL document CHEMBL1201862, “PubChem BioAssay data set” (2004)
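All cell lines were grown in 96-well plates and treated with compound for 48 hours. At the GI50, growth is halved.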 The source made the active and inactive calls. Rule as the data show it: active = GI50 up to about 1.1 µM and inactive = higher.

Key:
Assay in all cases: NCI tumour cell line growth inhibition, 48 h
OVCAR-5 = test system: OVCAR-5
NCI-H23 = test system: NCI-H23
SN12C = test system: SN12C
Hs-578T = test system: Hs-578T
HCC 2998 = test system: HCC 2998
SF-268 = test system: SF-268
M14 = test system: M14
HT-29 = test system: HT-29
SF-539 = test system: SF-539
CCRF-CEM = test system: CCRF-CEM
NCI-H226 = test system: NCI-H226
HCT-15 = test system: HCT-15
MCF7 = test system: MCF7
UACC-257 = test system: UACC-257
A498 = test system: A498
SR = test system: SR
RPMI-8226 = test system: RPMI-8226
SK-MEL-28 = test system: SK-MEL-28
ACHN = test system: ACHN
MOLT-4 = test system: MOLT-4

Row | Compound | GI50 (OVCAR-5) | GI50 (NCI-H23) | GI50 (SN12C) | GI50 (Hs-578T) | GI50 (HCC 2998) | GI50 (SF-268) | GI50 (M14) | GI50 (HT-29) | GI50 (SF-539) | GI50 (CCRF-CEM) | GI50 (NCI-H226) | GI50 (HCT-15) | GI50 (MCF7) | GI50 (UACC-257) | GI50 (A498) | GI50 (SR) | GI50 (RPMI-8226) | GI50 (SK-MEL-28) | GI50 (ACHN) | GI50 (MOLT-4)
1 | COc1ccc(C(CC(C)=O)c2c(O)c3ccccc3oc2=O)cc1OC (centres undefined) | > 100 µM (inactive) | > 100 µM (inactive) | > 100 µM (inactive) | > 100 µM (inactive) | > 100 µM (inactive) | > 100 µM (inactive) | > 100 µM (inactive) | > 100 µM (inactive) | > 100 µM (inactive) | > 100 µM (inactive) | > 100 µM (inactive) | > 100 µM | > 100 µM (inactive) | > 100 µM (inactive) | > 100 µM (inactive) | > 100 µM (inactive) | > 100 µM (inactive) | > 100 µM (inactive) | > 100 µM (inactive) | > 100 µM (inactive)
2 | N#Cc1c(Cl)nc2ccccc2c1N=[N+]=[N-] | 6.61 µM (inactive) | 2.52 µM (inactive) | 5.14 µM (inactive) | 5.81 µM (inactive) | 6.12 µM (inactive) | 3.24 µM (inactive) | 2.84 µM (inactive) | 1.92 µM (inactive) | 2.15 µM (inactive) | 1.41 µM (inactive) | 12.5 µM (inactive) | 2.02 µM | 4.56 µM (inactive) | 12.7 µM (inactive) | 21.7 µM (inactive) | 0.875 µM (active) | 2.11 µM (inactive) | 2.95 µM (inactive) | 2.11 µM (inactive) | 1.08 µM (active)
3 | O=[N+]([O-])c1ccc(C(c2c[nH]c3ccccc23)c2c[nH]c3ccccc23)cc1 | 23.6 µM (inactive) | 7.1 µM (inactive) | 14.4 µM (inactive) | 19 µM (inactive) | 13.2 µM (inactive) | 8.85 µM (inactive) | 11.7 µM (inactive) | 11.5 µM (inactive) | 16.4 µM (inactive) | 0.309 µM (active) | 10.7 µM (inactive) | 11 µM | 2.24 µM (inactive) | 3.03 µM (inactive) | 16.1 µM (inactive) | 4.5 µM (inactive) | 1.45 µM (inactive) | 18.5 µM (inactive) | 8.05 µM (inactive) | 9.66 µM (inactive)
4 | Cc1ccc(S(=O)(=O)NNC(=O)Nc2ccc([N+](=O)[O-])cc2)cc1 | > 100 µM (inactive) | 36.7 µM (inactive) | 97.1 µM (inactive) | 34.6 µM (inactive) | 64.9 µM (inactive) | 67.6 µM (inactive) | 89.5 µM (inactive) | 43.5 µM (inactive) | 50.7 µM (inactive) | 45.3 µM (inactive) | > 100 µM (inactive) | 24.5 µM | 35.6 µM (inactive) | 46.5 µM (inactive) | 37.8 µM (inactive) | 42.6 µM (inactive) | 20 µM (inactive) | > 100 µM (inactive) | > 100 µM (inactive) | 46.3 µM (inactive)
5 | CCCCCC1=C/C(=C\c2[nH]c(-c3ccc[nH]3)cc2OC)N=C1C | 0.0179 µM (active) | 0.0128 µM (active) | < 0.01 µM (active) | < 0.01 µM (active) | 0.0113 µM (active) | < 0.01 µM (active) | < 0.01 µM (active) | < 0.01 µM (active) | 0.0127 µM (active) | < 0.01 µM (active) | 0.012 µM (active) | < 0.01 µM | 0.0136 µM (active) | 0.0684 µM (active) | 0.0989 µM (active) | < 0.01 µM (active) | < 0.01 µM (active) | 0.0215 µM (active) | < 0.01 µM (active) | < 0.01 µM (active)
6 | CCOP(=O)(OCC)/C(C#N)=C/c1ccc(-c2cc(C(F)(F)F)cc(C(F)(F)F)c2)o1 | 13.3 µM (inactive) | 13 µM (inactive) | 15.1 µM (inactive) | 25.1 µM (inactive) | 8.45 µM (inactive) | 15.2 µM (inactive) | 10.2 µM (inactive) | 6.55 µM (inactive) | 14.9 µM (inactive) | 9.75 µM (inactive) | 14.8 µM (inactive) | 6.38 µM | 6.3 µM (inactive) | 16.3 µM (inactive) | 12.4 µM (inactive) | 7.43 µM (inactive) | 3.59 µM (inactive) | 16.9 µM (inactive) | 12.7 µM (inactive) | 3.71 µM (inactive)
7 | O=C(Cn1ccnc1[N+](=O)[O-])NCCO [ETANIDAZOLE] | > 100 µM (inactive) | > 100 µM (inactive) | > 100 µM (inactive) | > 100 µM (inactive) | 41.8 µM (inactive) | > 100 µM (inactive) | > 100 µM (inactive) | > 100 µM (inactive) | > 100 µM (inactive) | > 100 µM (inactive) | > 100 µM (inactive) | > 100 µM | > 100 µM (inactive) | 56.5 µM (inactive) | > 100 µM (inactive) | > 100 µM (inactive) | > 100 µM (inactive) | > 100 µM (inactive) | > 100 µM (inactive) | 
